From US6833456B2, “Indolyl-urea derivatives of thienopyridines useful as antiangiogenic agents, and methods for their use” (Agouron Pharmaceuticals, Inc., priority 2002, dated 2004) come the findings set out here.

Assay [1] concerns the target T1, unphosphorylated VEGF-R2Δ50 (FLVK) (Homo sapiens, UniProt P35968, DEL940-989/E990V).
T1 construct: VEGF-R2Δ50 contains residues 806-939 and 990-1171; made in house; host or cells: baculovirus/insect cell system
Description: VEGF-R2 coupled spectrophotometric assay, unphosphorylated construct (FLVK). The format is biochemical. The settings on record: for inhibition at 0.05 µM: percent inhibition at 50 nM. Put shortly: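 Human VEGF-R2Δ50 cytosolic kinase (residues 806-939/990-1171, E990V), baculovirus-expressed, unphosphorylated form. PK/LDH-coupled NADH oxidation at 340 nm with 20 mM poly(E4Y1), 3 mM ATP, 60 mM MgCl2, 2 mM MnCl2, 200 mM HEPES pH 7.5, 5-40 nM enzyme; Ki fitted by Morrison equation.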

In assay [2] the test system is human umbilical vein endothelial cells (HUVEC). Description: HUVEC+VEGF proliferation assay. The format is cell-based. The settings on record: Homo sapiens, HUVEC, 72 h, VEGF 6 ng/mL, MTT. Put shortly: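 HUVEC (passage 3-4), serum-starved 24 h in F12K + 1% FBS, were pre-treated with compound for 1 h (0.1% DMSO final). They were then stimulated with VEGF at 6 ng/mL final. Proliferation was measured after 72 h by MTT dye reduction (4 h), with absorbance read at 595 nm.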

The target in another assay is T2, PDGFRβ (Homo sapiens, UniProt P09619).
T2 construct: expressed in transfected cells; host or cells: porcine aorta endothelial (PAE) cells
T2 sequence (P09619 33-1106): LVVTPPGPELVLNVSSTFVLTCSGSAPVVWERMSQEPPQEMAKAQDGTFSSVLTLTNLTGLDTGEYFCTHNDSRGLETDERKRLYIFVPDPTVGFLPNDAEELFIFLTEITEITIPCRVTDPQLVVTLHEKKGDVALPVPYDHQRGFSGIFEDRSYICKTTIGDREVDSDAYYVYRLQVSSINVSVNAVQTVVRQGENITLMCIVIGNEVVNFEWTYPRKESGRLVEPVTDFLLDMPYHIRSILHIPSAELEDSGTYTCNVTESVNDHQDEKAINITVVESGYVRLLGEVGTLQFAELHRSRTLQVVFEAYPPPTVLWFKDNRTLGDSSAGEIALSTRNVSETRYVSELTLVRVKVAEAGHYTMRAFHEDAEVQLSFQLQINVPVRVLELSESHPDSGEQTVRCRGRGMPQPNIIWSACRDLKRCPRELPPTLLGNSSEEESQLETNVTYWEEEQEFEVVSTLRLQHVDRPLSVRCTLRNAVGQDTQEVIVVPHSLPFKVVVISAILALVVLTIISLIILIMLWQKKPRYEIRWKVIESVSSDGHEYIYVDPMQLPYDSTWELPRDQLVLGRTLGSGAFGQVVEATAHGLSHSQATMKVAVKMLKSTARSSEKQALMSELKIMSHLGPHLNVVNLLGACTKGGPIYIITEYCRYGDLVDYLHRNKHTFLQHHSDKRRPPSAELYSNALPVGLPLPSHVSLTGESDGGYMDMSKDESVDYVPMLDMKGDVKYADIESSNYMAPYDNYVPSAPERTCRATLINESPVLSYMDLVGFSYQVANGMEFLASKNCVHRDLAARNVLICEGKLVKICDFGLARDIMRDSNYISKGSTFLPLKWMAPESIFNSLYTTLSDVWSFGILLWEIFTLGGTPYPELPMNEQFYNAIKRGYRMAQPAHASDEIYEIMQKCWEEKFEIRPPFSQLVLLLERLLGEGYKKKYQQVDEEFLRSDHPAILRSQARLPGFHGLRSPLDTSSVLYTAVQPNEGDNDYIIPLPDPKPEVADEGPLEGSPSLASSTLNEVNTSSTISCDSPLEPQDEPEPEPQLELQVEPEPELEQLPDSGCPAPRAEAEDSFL
The assay can be described thus: PAE-PDGFRβ phosphorylation in PAE-PDGFRB cells assay. The format is cell-based. The settings on record: PAE cells overexpressing human PDGFRβ, PDGF-BB stimulated; read-out: PAE PDGFR autophos IC50. Put shortly:
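PAE cells overexpressing human PDGFRβ, serum-starved 16 h (0.1% FBS), compound 1 h at 37° C (0.5% DMSO), then 1 μg/mL PDGF-BB with 2 mM Na3VO4 for 8 min. Receptor captured by anti-PDGFRβ, phosphotyrosine detected by HRP-PY20/TMB at 450 nm; IC50 by four-parameter fit.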

Where “and” joins values, the source holds several entries; their conditions need not be identical. Equal values may be shown once.

In general, Ki refers to the equilibrium dissociation constant of an inhibitor or competing ligand from its target. Higher therefore signals lower affinity. What is called inhibition is how much of the control response was suppressed. A low value points to a response near the control. The IC50 is the midpoint of a concentration-inhibition curve.

T1 sequence (P35968 with tags, fused parts or gaps DEL940-989/E990V limits assumed): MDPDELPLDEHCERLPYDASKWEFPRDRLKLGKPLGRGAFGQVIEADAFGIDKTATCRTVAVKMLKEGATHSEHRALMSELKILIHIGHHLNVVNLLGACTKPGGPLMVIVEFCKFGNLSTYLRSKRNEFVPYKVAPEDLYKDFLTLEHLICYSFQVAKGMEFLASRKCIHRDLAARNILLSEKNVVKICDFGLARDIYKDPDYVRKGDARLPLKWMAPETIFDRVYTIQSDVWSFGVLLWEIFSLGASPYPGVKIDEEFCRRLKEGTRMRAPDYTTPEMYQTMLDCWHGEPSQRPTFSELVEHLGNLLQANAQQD

As to `Cc1cc2cc(Nc3ccnc4cc(-c5nccn5C)sc34)ccc2n1C(=O)NC1CC1` [Example 2d, 5-(2-[1-methyl-1H-imidazol-2-yl]thieno[3,2-b]pyridin-7-ylamino)-2-methylindole-1-carboxylic acid cyclopropylamide], in assay [1], the Ki is 0.32 nM and the inhibition at 0.05 µM amounted to 98%. Further, the IC50 in assay [2] worked out at 0.15 nM. Moreover, the IC50 on PDGFRβ is 11 nM and 25 nM.
As for `Cc1cc2cc(Nc3ccnc4cc(C(=O)N5CCC[C@H]5CO)sc34)ccc2n1C(=O)NC1CC1` [Example 2e, 5-(2-[(S)-2-(hydroxymethyl)pyrrolidine-1-carbonyl]thieno[3,2-b]pyridin-7-ylamino)-2-methylindole-1-carboxylic acid cyclopropylamide], in assay [1], affinity was put at a Ki of 0.16 nM and the inhibition at 0.05 µM turned out to be 95%. In assay [2], the IC50 stood at 0.5 nM. The IC50 at PDGFRβ is above 1000 nM.
In the case of `CNC(=O)n1c(C)cc2cc(Nc3ccnc4cc(-c5nc(C(C)(C)O)cs5)sc34)ccc21` [Example 3a, 5-{2-[4-(1-Hydroxy-1-methyl-ethyl)-thiazol-2-yl]-thieno[3,2-b]pyridin-7-ylamino}-2-methyl-indole-1-carboxylic acid methylamide], in assay [1], affinity was put at a Ki of 0.45 nM and the inhibition at 0.05 µM stood at 91%. The IC50 in assay [2] is 0.245 nM. For the same compound, the IC50 on PDGFRβ was 84 nM and 99 nM.
With `CCOC(=O)c1csc(-c2cc3nccc(Nc4ccc5c(c4)cc(C)n5C(=O)NC)c3s2)n1` [Example 3c, 2-[7-(2-Methyl-1-methylcarbamoyl-1H-indol-5-ylamino)-thieno[3,2-b]pyridin-2-yl]-thiazole-4-carboxylic acid ethyl ester], in assay [1], the Ki was found to be 0.79 nM and the inhibition at 0.05 µM was 81%. The IC50 in assay [2] amounted to 2.33 nM. Moreover, the IC50 at PDGFRβ was 631 nM.
In assay [1], `CNC(=O)n1c(C)cc2cc(Nc3cccc4cc(C(=O)N5C[C@H](OC)C[C@H]5CO)sc34)ccc21` [Example 3f, 5-[2-((2S,4R)-2-Hydroxymethyl-4-methoxy-pyrrolidine-1-carbonyl)-benzo[b]thiophen-7-ylamino]-2-methyl-indole-1-carboxylic acid methylamide] showed a Ki of 10.5 nM and an inhibition at 0.05 µM of 57%. Moreover, the IC50 in assay [2] stood at 3.99 nM. The IC50 on PDGFRβ is above 1000 nM.
For `CO[C@@H]1C[C@@H](CO)N(C(=O)c2cc3cccc(Nc4ccc5c(c4)cc(C)n5C(=O)NC4CC4)c3s2)C1` [Example 3g, 5-[2-((2S,4R)-2-Hydroxymethyl-4-methoxy-pyrrolidine-1-carbonyl)-benzo[b]thiophen-7-ylamino]-2-methyl-indole-1-carboxylic acid cyclopropylamide], in that order: 1.12 nM, 95%, 0.44 nM and above 1000 nM.
In the case of `CNC(=O)n1c(C)cc2cc(Oc3ccnc4cc(C(=O)N5C[C@H](OC)C[C@H]5CO)sc34)ccc21` [Example 3o, 5-[2-(2-Hydroxymethyl-4-methoxy-pyrrolidine-1-carbonyl)-thieno[3,2-b]pyridin-7-yloxy]-2-methyl-indole-1-carboxylic acid methylamide], the Ki in assay [1] came out at 1.35 nM. In addition, in assay [1], the inhibition at 0.05 µM worked out at 93%. Moreover, the IC50 was 0.24 nM in assay [2]; 599 nM and 126 nM at PDGFRβ.
As to `CNC(=O)n1c(C)cc2cc(Oc3ccnc4cc(C(=O)N5CCC[C@H]5COC)sc34)ccc21` [Example 4a, 5-(2-[(S)-2-(methoxymethyl)pyrrolidine-1-carbonyl]thieno[3,2-b]pyridin-7-yloxy)-2-methylindole-1-carboxylic acid methylamide], in assay [1], the Ki worked out at 1.1 nM. In addition, the inhibition at 0.05 µM in assay [1] stood at 96%. The IC50 in assay [2] turned out to be 0.2 nM; on PDGFRβ it was 16.5 nM.
As for `CNC(=O)n1c(C)cc2cc(Oc3ccnc4cc(C(=O)N5CCC[C@@H]5COC)sc34)ccc21` [Example 4e, 5-[2-(2R-Methoxymethyl-pyrrolidine-1-carbonyl)-thieno[3,2-b]pyridin-7-yloxy]-2-methyl-indole-1-carboxylic acid methylamide], the Ki in assay [1] came out at 0.14 nM. The compound further gave an inhibition at 0.05 µM in assay [1] of 96%. Besides, the IC50 in assay [2] was 0.6 nM; on PDGFRβ it was 16.7 nM.
For `C#CCNC(=O)n1c(C)cc2cc(Oc3ccnc4cc(C(=O)N5CC[C@H](OC)C5)sc34)ccc21` [Example 4f, 5-[2-(3S-Methoxy-pyrrolidine-1-carbonyl)-thieno[3,2-b]pyridin-7-yloxy]-2-methyl-indole-1-carboxylic acid prop-2-ynylamide], in that order: 0.85 nM, 95%, 0.057 nM and 14 nM.
In the case of `CNC(=O)n1c(C)cc2cc(Oc3ccnc4cc(C(=O)N5CC[C@H](OC)C5)sc34)ccc21` [Example 4g, 5-[2-(3S-Methoxy-pyrrolidine-1-carbonyl)-thieno[3,2-b]pyridin-7-yloxy]-2-methyl-indole-1-carboxylic acid methylamide], in assay [1], the affinity corresponds to a Ki of 0.23 nM and the inhibition at 0.05 µM amounted to 97%. Also, in assay [2], the IC50 was 0.139 nM. On PDGFRβ, the 50% inhibitory concentration (IC50) stood at 10.5 nM.
For `CO[C@H]1CCN(C(=O)c2cc3nccc(Oc4ccc5c(c4)cc(C)n5C(=O)NC4CC4)c3s2)C1` [Example 4h, 5-[2-(3S-Methoxy-pyrrolidine-1-carbonyl)-thieno[3,2-b]pyridin-7-yloxy]-2-methyl-indole-1-carboxylic acid cyclopropylamide], in that order: 1.6 nM, 91%, 0.65 nM and 19 nM.
In assay [1], `CNC(=O)n1c(C)cc2cc(Oc3ccnc4cc(C(=O)N5CC[C@@H](OC)C5)sc34)ccc21` [Example 4j, 5-[2-(3R-Methoxy-pyrrolidine-1-carbonyl)-thieno[3,2-b]pyridin-7-yloxy]-2-methyl-indole-1-carboxylic acid methylamide] had a Ki of 0.121 nM and an inhibition at 0.05 µM of 96%. Besides, the IC50 in assay [2] was 0.088 nM. Further, the IC50 on PDGFRβ was 10 nM and 13 nM.
In turn, `C#CCNC(=O)n1c(C)cc2cc(Oc3ccnc4cc(C(=O)N5CC[C@@H](OC)C5)sc34)ccc21` [Example 4l, 5-[2-(3R-Methoxy-pyrrolidine-1-carbonyl)-thieno[3,2-b]pyridin-7-yloxy]-2-methyl-indole-1-carboxylic acid prop-2-ynylamide] yielded a Ki in assay [1] of 0.19 nM. For the same compound, the inhibition at 0.05 µM in assay [1] stood at 96%. Besides, the values for the 50% inhibitory concentration (IC50) (in assay [2]; at PDGFRβ) were 0.176 nM and 15 nM, respectively.
In assay [1], `CNC(=O)n1c(C)cc2cc(Oc3ccnc4cc(C(=O)N5CC[C@@H](O)C5)sc34)ccc21` [Example 4n, 5-[2-(3R-Hydroxy-pyrrolidine-1-carbonyl)-thieno[3,2-b]pyridin-7-yloxy]-2-methyl-indole-1-carboxylic acid methylamide] showed a Ki of 0.62 nM and an inhibition at 0.05 µM of 99%. For the same compound, in assay [2], the IC50 amounted to 0.042 nM. Moreover, the half-inhibitory concentration (IC50) on PDGFRβ stood at 5.8 nM.
For `C#CCNC(=O)n1c(C)cc2cc(Oc3ccnc4cc(C(=O)N5CC[C@@H](O)C5)sc34)ccc21` [Example 4o, 5-[2-(3R-Hydroxy-pyrrolidine-1-carbonyl)-thieno[3,2-b]pyridin-7-yloxy]-2-methyl-indole-1-carboxylic acid prop-2-ynylamide], in that order: 0.63 nM, 97%, 0.071 nM and 9 nM.
For `Cc1cc2cc(Oc3ccnc4cc(C(=O)N5CC[C@@H](O)C5)sc34)ccc2n1C(=O)NC1CC1` [Example 4p, 5-[2-(3R-Hydroxy-pyrrolidine-1-carbonyl)-thieno[3,2-b]pyridin-7-yloxy]-2-methyl-indole-1-carboxylic acid cyclopropylamide], in that order: 0.25 nM, 98%, 0.128 nM and 4 nM.
Take `C#CCNC(=O)n1c(C)cc2cc(Oc3ccnc4cc(C(=O)N5CCC[C@@H]5CO)sc34)ccc21` [Example 8q, 5-[2-(2R-Hydroxymethyl-pyrrolidine-1-carbonyl)-thieno[3,2-b]pyridin-7-yloxy]-2-methyl-indole-1-carboxylic acid prop-2-ynylamide]: in assay [1], the Ki is 0.286 nM and 0.05 µM produced 97% inhibition. Further, the IC50 in assay [2] amounted to 0.19 nM. At PDGFRβ, the IC50 was 29 nM and 13 nM.
`CCCNC(=O)n1c(C)cc2cc(Oc3ccnc4cc(C(=O)N5CC[C@H](O)C5)sc34)ccc21` [Example 9i, 5-[2-(3S-Hydroxy-pyrrolidine-1-carbonyl)-thieno[3,2-b]pyridin-7-yloxy]-2-methyl-indole-1-carboxylic acid propylamide] came in with a Ki in assay [1] of 0.245 nM. This compound showed an inhibition at 0.05 µM in assay [1] of 98%. For the same compound, the figures for the IC50 (in assay [2]; on PDGFRβ) were 0.37 nM and 36 nM, respectively.
